The structures appear in SMILES notation. Some results are limits rather than exact numbers.

This experiment addresses T1, Stearoyl-CoA desaturase (Homo sapiens, UniProt O00767).
T1 sequence (O00767 whole entry): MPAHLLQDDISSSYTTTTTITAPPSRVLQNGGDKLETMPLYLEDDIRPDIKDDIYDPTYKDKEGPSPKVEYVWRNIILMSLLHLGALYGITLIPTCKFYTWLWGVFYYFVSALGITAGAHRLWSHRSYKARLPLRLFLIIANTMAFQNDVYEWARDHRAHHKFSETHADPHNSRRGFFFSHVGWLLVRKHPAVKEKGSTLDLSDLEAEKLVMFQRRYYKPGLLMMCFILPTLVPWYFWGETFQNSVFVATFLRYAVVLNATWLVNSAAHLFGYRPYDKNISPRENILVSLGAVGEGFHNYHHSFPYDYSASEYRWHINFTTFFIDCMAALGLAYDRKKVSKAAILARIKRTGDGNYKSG
Kind of experiment: Inhibition of human SCD1.

In the case of `O=C(NCc1ccccc1)c1cccc(NCC(=O)N2CCC(Oc3ccccc3C(F)(F)F)CC2)n1`, the IC50 amounted to 7300 nM.

The compound `O=C(NCc1ccccc1)c1ccccc1NCC(=O)N1CCC(Oc2ccccc2Cl)CC1` gave an IC50 of 580 nM.

`O=C(NCCc1ccccc1)c1ncccc1NCC(=O)N1CCC(Oc2ccccc2C(F)(F)F)CC1`: the IC50 came to 780 nM.

In the case of `COC(=O)c1nccnc1NCC(=O)N1CCC(Oc2ccccc2Cl)CC1`, the midpoint of inhibition, the IC50, lay at 39 nM.

Take `CCNC(=O)c1nccnc1NCC(=O)N1CCC(Oc2ccccc2Cl)CC1`: the IC50 amounted to 39 nM. This counts as double-digit nanomolar.

In turn, `O=C(NCc1cccnc1)c1nccnc1NCC(=O)N1CCC(Oc2ccccc2Cl)CC1` gave an IC50 of 99 nM.

The compound `O=C(NCCO)c1nccnc1NCC(=O)N1CCC(Oc2ccccc2Cl)CC1` returned an IC50 of 100 nM.

`O=C(CNc1nccnc1Cl)N1CCC(Oc2ccccc2Cl)CC1` gave an IC50 of 30 nM.

For the compound `NC(=O)c1ncccc1NCC(=O)N1CCC(Oc2ccccc2C(F)(F)F)CC1`, the IC50 worked out at 90 nM.

In the case of `N#Cc1nccnc1NCC(=O)N1CCC(Oc2ccccc2Cl)CC1`, the IC50 came out at 340 nM.

`CNC(=O)c1nccnc1NCC(=O)N1CCC(Oc2ccccc2Br)CC1` had a 50% inhibitory concentration (IC50) of 58 nM.

On to `NC(=O)c1nccnc1NCC(=O)N1CCC(Oc2ccccc2Cl)CC1`, for which inhibition was half-maximal at 94 nM (IC50).

Consider `CNC(=O)c1cccnc1NCC(=O)N1CCC(Oc2ccccc2C(F)(F)F)CC1`, for which the 50% inhibitory concentration (IC50) was over 1000 nM.

`CNC(=O)c1nccnc1NCC(=O)N1CCC(Oc2ccccc2Cl)CC1`: the IC50 worked out at 51 nM. In other words, the double-digit nanomolar range.

For the compound `O=C(NCc1ccccn1)c1nccnc1NCC(=O)N1CCC(Oc2ccccc2Cl)CC1`, the IC50 was found to be 110 nM.

Turning to `CCCNC(=O)c1ncccc1NCC(=O)N1CCC(Oc2ccccc2C(F)(F)F)CC1`, it took 390 nM to reach half-maximal inhibition (IC50).

`CC(C)CNC(=O)c1nccnc1NCC(=O)N1CCC(Oc2ccccc2Cl)CC1` gave an IC50 of 260 nM.

Consider `CNC(=O)c1nccnc1NCC(=O)N1CCC(Oc2cc(F)cc(F)c2Cl)CC1`, for which the IC50 was determined as 35 nM.

In the case of `O=C(Nc1ccccc1)c1nccnc1NCC(=O)N1CCC(Oc2ccccc2Cl)CC1`, it took 550 nM to reach half-maximal inhibition (IC50).

As for `CNC(=O)c1nccnc1NCC(=O)N1CCC(Oc2ccccc2)CC1`, the IC50 is 6300 nM.

As to `CNC(=O)c1nccnc1NCC(=O)N1CCC(Oc2cc(F)ccc2Cl)CC1`, inhibition was half-maximal at 51 nM (IC50).

`O=C(NCc1cccnc1)c1ncccc1NCC(=O)N1CCC(Oc2ccccc2C(F)(F)F)CC1`: 430 nM corresponded to half-maximal inhibition (IC50). Against the preceding compound, the IC50 is about 8.4-fold higher.

Regarding `O=C(NCc1ccncc1)c1ncccc1NCC(=O)N1CCC(Oc2ccccc2C(F)(F)F)CC1`, the IC50 came to 350 nM. The IC50 values of the last two compounds are within 1.5-fold of each other.

Turning to `O=C(NCCO)c1ncccc1NCC(=O)N1CCC(Oc2ccccc2C(F)(F)F)CC1`, the IC50 worked out at 120 nM. This IC50 lies about 2.9-fold lower than the previous one.

In the case of `CNC(=O)c1nccnc1NCC(=O)N1CCC(C(=O)c2ccccc2)CC1`, the half-inhibitory concentration (IC50) is over 1000 nM.

With `CNC(=O)c1nccnc1NCC(=O)N1CCC(Oc2cc(Cl)ccc2Cl)CC1`, half-maximal inhibition (IC50) required 38 nM.

Turning to `O=C(NCc1ccccc1)c1ncccc1NCC(=O)N1CCC(Oc2ccccc2Cl)CC1`, half-maximal inhibition (IC50) was put at 560 nM. This IC50 is about 15-fold higher than that of the compound before.

`CCNC(=O)c1ncccc1NCC(=O)N1CCC(Oc2ccccc2C(F)(F)F)CC1` showed an IC50 of 110 nM.

Compound `O=C(NCc1ccccc1)c1nccnc1NCC(=O)N1CCC(Oc2ccccc2Cl)CC1` yielded an IC50 of 140 nM.

`O=Cc1nccnc1NCC(=O)N1CCC(Oc2ccccc2Cl)CC1`: it took 210 nM to reach half-maximal inhibition (IC50).

With `O=C(NC1CCCC1)c1ncccc1NCC(=O)N1CCC(Oc2ccccc2C(F)(F)F)CC1`, the IC50 was over 10000 nM.

As for `CN(C)C(=O)c1ncccc1NCC(=O)N1CCC(Oc2ccccc2C(F)(F)F)CC1`, the IC50 is over 10000 nM.

`O=C(NCc1ccncc1)c1nccnc1NCC(=O)N1CCC(Oc2ccccc2Cl)CC1` gave an IC50 of 110 nM.

Regarding `CNC(=O)c1ncccc1NCC(=O)N1CCC(Oc2ccccc2C(F)(F)F)CC1`, half-maximal inhibition (IC50) was put at 97 nM.
